{"source": "patent US20040259889A1", "about": "“Methods of treating pulmonary disease” (priority 2001, published 2004)", "key": {"[1]": {"tested_on": "pacing heart failure preparations (Yorkshire pigs)", "test": "Systemic and pulmonary hemodynamics after A1 adenosine receptor antagonist infusion in pacing heart failure pigs (Example 1)", "format": "in vivo, pig", "excerpt": "Nineteen Yorkshire pigs (20-25 kg, male Hambone Farms, SC) were instrumented in order to induce pacing cardiac heart failure as described in Tomita et al., Circulation, 83, pp. 635-644 (1991). Briefly, under isoflurane anesthesia (3% in 1.5 L/min of oxygen) and through a left thoracotomy, a shielded stimulated electrode was sutured onto the left atrium, connected to a modified programmable pacemaker (8329 Medtronic, Inc., Minneapolis, Minn.) and buried in a subcutaneous pocket. Ten to fourteen days following recovery from the surgical procedure, a baseline echocardiographic study was performed and pacing initiate at 240 beats/min for 3 weeks. An additional group of 7 normal control animals were cared for in identical fashion with the exception of the pacing protocol. At the conclusion of the 3-week pacing period, the pacemakers were de-activated and echocardiographic studies were performed. For these studies, the animals were brought to the laboratory and the pacemakers were deactivated. Two-dimensional and M-mode echocardiographic studies (ATL Ulmark VI, 2.25 MHz transducer, Bothell, Wash.) were used to image the left ventricle from a right parasternal approach. Following the echocardiographic study, the animals were prepared for acute instrumentation and initiation of the study protocol.\nThe pigs were anesthetized with intravenous boluses of sufentanyl 2.0 μg/kg, etomidate 0.3 mg/kg, and vecuronium 10 mg, after which a tracheostomy was performed. A tubocurarine 12 mg intravenous bolus was administered after obtaining arterial pressure. Anesthesia was maintained throughout the procedure by continuous intravenous infusions of morphine sulfate 3 mg/kg/hr and tubocurarine 2 mg/hr. Etomidate 0.1 mg/kg intravenous was also given at 30 minute intervals. A maintenance infusion of 10 ml/kg/hr of lactated Ringer's solution was maintained throughout the protocol. […] A multi-lumened thermodilution catheter (7.5 Fr, Baxter Healthcare Corp., Irvine, Calif.) was positioned in a pulmonary artery via the right external jugular vein and a large bore catheter (7 Fr) was placed in the left external jugular vein for fluid administration. The carotid artery was exposed and cannulated, and the catheter (7 Fr) was advanced to the aortic root for aortic blood pressure measurements and blood samplings.\nFollowing instrumentation and a 15-minute stabilization period, baseline hemodynamics were recorded and digitized. Thermodilution derived cardiac output and ejection fraction were obtained from the pulmonary artery catheter in triplicate. All measurements were simultaneously recorded with the ventilator temporarily suspended in order to prevent respiratory artifact the recordings. An arterial sample was drawn for electrolyte assays. Pulmonary and systemic vascular resistances were computed from the thermodilution cardiac output and pressure measurements using standard formulae.\nFollowing instrumentation and collection of baseline measurements, the animals were randomly assigned to receive either vehicle infusion (polyethylene glycol, 3 ml intravenous, n=10) or the A1 adenosine receptor antagonist (1 mg/kg 1,8-(3-Oxa-tricyclo[3.2.1.0^2,4]oct-6-yl)-1,3-dipropyl-3,7-dihydro-purine-2,6-dione (BG9719); n=9). Following infusion of vehicle or BG9719, the hemodynamic measurements described in the previous section were repeated at 10, 30, 60, 90, 120 minutes post infusion.\nChanges in hemodynamics were initially examined between the control and A1 adenosine receptor antagonist (BG9719) groups by ANOVA. Comparisons between these baseline values following randomization were performed by a 2-way ANOVA. Comparisons of these parameters following infusion were compared using a multi-way ANOVA for repeated measures. Pair-wise comparisons were performed with a Bonferroni adjusted t-test. All statistical analyses were performed using statistical software programs (BMDP Statistical Software Inc. University of California Press, Los Angeles, Calif.)."}, "[2]": {"tested_on": "pacing HF preparations (Yorkshire pigs)", "test": "Systemic and pulmonary hemodynamics after A1 adenosine receptor antagonist infusion in pacing heart failure pigs (Example 2)", "format": "in vivo, pig", "protocol": "Four Yorkshire pigs (25-30 kg, male, Hambone Farms, SC) were implanted with a pacemaker (8329, Medtronic, Inc., Minneapolis, Minn.) in order to induce pacing CHF as described above. Ten to 14 days following recovery from the surgical procedure, a baseline echocardiographic study (ATL Ultramark VI, 2.25 MHz transducer, Bothell, Wash.) was performed and pacing initiated at 240 beats/min for 3 weeks. An additional group of 6 normal control animals were cared for in identical fashion with the exception of the pacing protocol. At the conclusion of the 3-week pacing period, the pacemakers were deactivated and echocardiographic studies were used to image the LV from a right parasternal approach. Following the echocardiographic study, the animals were prepared for acute instrumentation and initiation of the study protocol.\nThe pigs were anesthetized (i.v. sufentanyl […], etomidate 0.3 mg/kg) and paralyzed (vecuronium 10 mg, tubocurarine 12 mg). A maintenance infusion of 10 ml/kg/hr of lactated ringer's solution was maintained throughout the protocol. A thermodilution catheter (7.5 Fr, Baxter Healthcare Corp., Irvine, Calif.) was positioned in the pulmonary artery via the right external jugular vein and a large bore catheter (7 Fr) was placed in the left external jugular vein for fluid administration. The carotid artery was exposed and cannulated, and the catheter (7 Fr) was advanced to the aortic root for aortic blood pressure measurements and blood sampling drained.\nFollowing instrumentation and a 10-minute stabilization period, baseline hemodynamics were recorded and digitized. Thermodilution derived cardiac output and ejection fraction were obtained from the pulmonary artery catheter in triplicate. Pulmonary and systemic vascular resistances were computed from the pressure measurements and cardiac output and using standard formulae.\nFollowing instrumentation and collection of baseline measurements, the A1 receptor antagonist (3-[4-(2,6-Dioxo-1,3-dipropyl-2,3,6,7-tetrahydro-1H-purin-8-yl)-bicyclo[2.2.2]oct-1-yl]-propionic acid (BG9928), 1 mg/kg) was infused intravenously. Hemodynamic measurements described in the previous section were repeated at 10, 20, 30, 60, 90, and 120 minutes post infusion.\nComparisons of basal hemodynamics between the control and HF groups were performed using Student's t-test. Time-dependent changes in hemodynamics following A1 block infusion were examined by ANOVA. Pair wise comparisons were performed with a Bonferroni adjusted t-test. All statistical analyses were performed using statistical software programs (BMDP Statistical Software Inc. University of California Press, Los Angeles, Calif.). Results are presented as mean ± standard error of the mean (SEM). Values of p<0.05 were considered to be statistically significant."}, "[3]": {"conditions": "BG9719 1 mg/kg infusion, 10-120 min post infusion"}, "[4]": {"conditions": "BG9928 1 mg/kg intravenous infusion"}}}
{"smiles": "CCCn1c(=O)c2[nH]c(C3CC4CC3C3OC43)nc2n(CCC)c1=O", "note": "(centres unmarked) [BG9719, 8-(3-Oxa-tricyclo[3.2.1.0^2,4]oct-6-yl)-1,3-dipropyl-3,7-dihydro-purine-2,6-dione]", "values": [{"measurement": "pulmonary vascular resistance (PVR), decrease from baseline", "setting": "[1]; 1 mg/kg intravenous infusion, 10 min post treatment, then returned to baseline levels, p<0.05", "value": 38, "unit": "%"}, {"measurement": "pulmonary artery pressure (PAP), change in words", "setting": "[1]; 1 mg/kg, 30 minutes after treatment, remained depressed", "value": "decreased"}, {"measurement": "pulmonary capillary wedge pressure (PCWP), change in words", "setting": "[1]; 1 mg/kg, 90 minutes after treatment", "value": "decreased"}, {"measurement": "pulmonary capillary wedge pressure (PCWP)", "setting": "[1]; 1 mg/kg, 90 minutes post treatment, p<0.05, mean±SEM", "value": "9 ± 2", "unit": "mmHg"}, {"measurement": "mean pulmonary artery pressure after treatment", "setting": "[1]; 1 mg/kg, from 30 min post treatment, baseline 30±1 mmHg, p<0.05, mean±SEM", "value": "23±3", "unit": "mmHg"}, {"measurement": "systemic vascular resistance, change from baseline", "setting": "[1]; BG9719 1 mg/kg infusion", "value": "No change"}, {"measurement": "cardiac output (CO), change from baseline", "setting": "[1]; [3]", "value": "No change"}, {"measurement": "heart rate (HR), change from baseline", "setting": "[1]; [3]", "value": "No change"}, {"measurement": "mean arterial pressure (MAP), change from baseline", "setting": "[1]; [3]", "value": "No change"}]}
{"smiles": "CCCn1c(=O)c2[nH]c(C34CCC(CCC(=O)O)(CC3)CC4)nc2n(CCC)c1=O", "note": "[BG9928, 3-[4-(2,6-Dioxo-1,3-dipropyl-2,3,6,7-tetrahydro-1H-purin-8-yl)-bicyclo[2.2.2]oct-1-yl]-propionic acid]", "values": [{"measurement": "systemic vascular resistance (SVR), change from baseline", "setting": "[2]; 1 mg/kg intravenous infusion, 10 min post treatment", "value": "no change"}, {"measurement": "pulmonary vascular resistance (PVR), fall from baseline", "setting": "[2]; 1 mg/kg intravenous infusion, 10 min post treatment, p<0.05", "value": 18, "unit": "%"}, {"measurement": "cardiac output, change from baseline", "setting": "[2]; [4]", "value": "No change"}, {"measurement": "heart rate, change from baseline", "setting": "[2]; [4]", "value": "No change"}, {"measurement": "mean arterial pressure, change from baseline", "setting": "[2]; [4]", "value": "No change"}]}
